Results taken from BindingDB's records for doi:10.1016/j.bmcl.2011.11.065 (Nerviano Medical Sciences, 2011).
pIC50: −log10 of the molar value.

Molecular target: 3-phosphoinositide-dependent protein kinase 1 (PDPK1) (Homo sapiens) (UniProt O15530)
Assay: Inhibition of PDK1

Row | Structure (SMILES) | pIC50
1 | CN1CCN(c2ccc(OC(F)(F)F)c(Nc3nccc(-c4cc5c(n4C)CCNC5=O)n3)c2)CC1 | < 5.00
2 | CN1CCN(c2ccc(OC(F)(F)F)c(Nc3nccc(-c4cc(C(N)=O)cn4C)n3)c2)CC1 | < 5.00
